These results are taken from patent publication US10874670B2, “Substituted fused heteroaromatic compounds as kinase inhibitors and the use thereof” (IMPACT THERAPEUTICS, INC., priority 2017, dated 2020).

Assay [1] has as its target ATM enzyme (human) (Homo sapiens, UniProt Q13315). Nature of the assay: ATM kinase assay (HTRF, GST-cMyc-p53 substrate). The assay is classed as biochemical. The conditions noted are these: for inhibition at 0.01 µM / inhibition at 0.1 µM / inhibition at 1 µM: 0.5 h, read-out: Inh (%) of ATM kinase. As to the method: In Vitro Inhibition of ATM by N,N-dimethyl-3-(4-(1-(tetrahydro-2H-pyran-4-yl)-[1,2,4]triazolo[4,3-a]quinoxalin-8-yl)phenoxy)propan-1-amine and its Analogues was Determined by ATM Kinase Assay
The reaction was initiated by the addition of a Mg/ATP mixture and incubation for 30 minutes at room temperature, the reaction was quenched by the addition of a stop solution containing EDTA. Finally, the detection buffer containing the d2-labeled anti-GST monoclonal antibody and the europium-labeled anti-phospho p53 (Ser15) antibody was added. The plate was then read in time resolved fluorescence mode and the homogeneous time resolved fluorescence (HTRF) signal was determined according to the equation: HTRF=10000×(Em665nm/Em620nm). Each compound sample was repeated in duplicate. The experiment negative control was all components except of the ATM enzyme and the positive control contained all components. All reactions were quenched by adding EDTA.
ATM kinase inhibition was detected by using the method described above. The curve equation for calculating IC50 value is as follows:
[formula] • wherein, C is the concentration of compound and D is the slope factor.

Assay [2] has as its system human colon cancer cell SW620. Nature of the assay: MTT assay, growth of SW620 cells, compounds combined with CPT-11. The format is cell-based. The conditions noted are these: combined with CPT-11 (205 nM medium), 5 days, MTT. As to the method:
Inhibitory effects of N,N-dimethyl-3-(4-(1-(tetrahydro-2H-pyran-4-yl)-[1,2,4]triazolo[4,3-a]quinoxalin-8-yl)phenoxy)propan-1-amine and its Analogues Combined with CPT-11 on the Growth of Human Colon Cancer Cell SW620 were Determined by MTT Assay
(§1) SW620 cells were digested by trypsinase, centrifuged at 800 rpm for 5 minutes, the supernatant was discarded, resuspended with fresh medium (RPMI 1640 medium+10% FBS) and counted. The cells were seeded into 96-well cell culture plate with appropriate cell density and incubated overnight in a 37° C. 5% CO2 incubator. The stock solutions of the tested compound and the reference compound AZD0156 were serially diluted to 8 concentrations by DMSO at the ratios of 1:3 and 1:10, respectively, the first concentration was 10 μM or 1 μM, and the last concentration was negative control of DMSO (0 μM, the final concentration of DMSO was 1%). 5 μL of each concentration was added to 120 μL of medium (25 times diluted) and mixed by shaking. The overnight cells were taken and the culture medium was removed, 195 μL of fresh medium containing 205 nM CPT-11 was added to each well, and 5 μL of diluted medium containing the corresponding concentration of the tested sample was added respectively, and the culture plate was then placed in the 5% CO2 cell culture incubator at 37° C. for 5 days. After removing the original solution, 100 pt of fresh serum-free DMEM medium containing MTT (0.5 mg/mL) was added to each well, the culture was continued. After 4 hours, the original solution was removed, 100 μL of DMSO was added into each well, the 96-well plates were shaken away from light for 10 minutes and placed in a multi-function reader to read the absorbance at the wavelength of 552/630/690 nm. GraphPad Prism 6.0 was used to analyze the data. The inhibitory activity of compounds on cell proliferation was plotted based on cell viability and compound concentration. The IC50 value was fitted by a sigmoidal dose response curve equation Y=100/(1+10^(Log C−Log IC50)), where C was the concentration of compound.
Table 3 summarizes the inhibitory effects of compounds combined with CPT-11 on the growth of human colon cancer cell SW620 (IC50).
For orientation: Formazan colour is commonly taken as a measure of viable cells.

Assay [3] relates to human breast cancer cell MDA-MB-468. Nature of the assay: MTT assay, growth of MDA-MB-468 cells. The assay is classed as cell-based. The conditions noted are these: 7 days, MTT. How it is done:
Inhibitory Effects of N,N-dimethyl-3-(4-(1-(tetrahydro-2H-pyran-4-yl)-[1,2,4]triazolo[4,3-a]quinoxalin-8-yl)phenoxy)propan-1-amine and its Analogues on the Growth of Human Breast Cancer Cell MDA-MB-468 were Determined by MTT Assay
as §1, with “MDA-MB-468 cells” for “SW620 cells”, “1:10, respectively:” for “1:10, respectively,”, “was 100” for “was 10”, “medium” for “medium containing 205 nM CPT-11”, “for 7 days (On the fourth day, the medium containing drugs was removed and fresh medium containing drugs was added for continuous cultivation).” for “for 5 days.”, “100 μL” for “100 pt”
Table 4 summarizes the inhibitory effects of compounds on the growth of human breast cancer cell MDA-MB-468 (IC50).

The mark [4] stands for this setting: C 0.01 μm (final concentration of compound).
Where [5] appears, read: C 0.1 μm (final concentration of compound).
The mark [6] stands for this setting: C 1 μm (final concentration of compound).
[7] abbreviates: Homo sapiens, MDA-MB-468, 168 h.

Sequence of ATM enzyme (human) (Q13315 whole entry): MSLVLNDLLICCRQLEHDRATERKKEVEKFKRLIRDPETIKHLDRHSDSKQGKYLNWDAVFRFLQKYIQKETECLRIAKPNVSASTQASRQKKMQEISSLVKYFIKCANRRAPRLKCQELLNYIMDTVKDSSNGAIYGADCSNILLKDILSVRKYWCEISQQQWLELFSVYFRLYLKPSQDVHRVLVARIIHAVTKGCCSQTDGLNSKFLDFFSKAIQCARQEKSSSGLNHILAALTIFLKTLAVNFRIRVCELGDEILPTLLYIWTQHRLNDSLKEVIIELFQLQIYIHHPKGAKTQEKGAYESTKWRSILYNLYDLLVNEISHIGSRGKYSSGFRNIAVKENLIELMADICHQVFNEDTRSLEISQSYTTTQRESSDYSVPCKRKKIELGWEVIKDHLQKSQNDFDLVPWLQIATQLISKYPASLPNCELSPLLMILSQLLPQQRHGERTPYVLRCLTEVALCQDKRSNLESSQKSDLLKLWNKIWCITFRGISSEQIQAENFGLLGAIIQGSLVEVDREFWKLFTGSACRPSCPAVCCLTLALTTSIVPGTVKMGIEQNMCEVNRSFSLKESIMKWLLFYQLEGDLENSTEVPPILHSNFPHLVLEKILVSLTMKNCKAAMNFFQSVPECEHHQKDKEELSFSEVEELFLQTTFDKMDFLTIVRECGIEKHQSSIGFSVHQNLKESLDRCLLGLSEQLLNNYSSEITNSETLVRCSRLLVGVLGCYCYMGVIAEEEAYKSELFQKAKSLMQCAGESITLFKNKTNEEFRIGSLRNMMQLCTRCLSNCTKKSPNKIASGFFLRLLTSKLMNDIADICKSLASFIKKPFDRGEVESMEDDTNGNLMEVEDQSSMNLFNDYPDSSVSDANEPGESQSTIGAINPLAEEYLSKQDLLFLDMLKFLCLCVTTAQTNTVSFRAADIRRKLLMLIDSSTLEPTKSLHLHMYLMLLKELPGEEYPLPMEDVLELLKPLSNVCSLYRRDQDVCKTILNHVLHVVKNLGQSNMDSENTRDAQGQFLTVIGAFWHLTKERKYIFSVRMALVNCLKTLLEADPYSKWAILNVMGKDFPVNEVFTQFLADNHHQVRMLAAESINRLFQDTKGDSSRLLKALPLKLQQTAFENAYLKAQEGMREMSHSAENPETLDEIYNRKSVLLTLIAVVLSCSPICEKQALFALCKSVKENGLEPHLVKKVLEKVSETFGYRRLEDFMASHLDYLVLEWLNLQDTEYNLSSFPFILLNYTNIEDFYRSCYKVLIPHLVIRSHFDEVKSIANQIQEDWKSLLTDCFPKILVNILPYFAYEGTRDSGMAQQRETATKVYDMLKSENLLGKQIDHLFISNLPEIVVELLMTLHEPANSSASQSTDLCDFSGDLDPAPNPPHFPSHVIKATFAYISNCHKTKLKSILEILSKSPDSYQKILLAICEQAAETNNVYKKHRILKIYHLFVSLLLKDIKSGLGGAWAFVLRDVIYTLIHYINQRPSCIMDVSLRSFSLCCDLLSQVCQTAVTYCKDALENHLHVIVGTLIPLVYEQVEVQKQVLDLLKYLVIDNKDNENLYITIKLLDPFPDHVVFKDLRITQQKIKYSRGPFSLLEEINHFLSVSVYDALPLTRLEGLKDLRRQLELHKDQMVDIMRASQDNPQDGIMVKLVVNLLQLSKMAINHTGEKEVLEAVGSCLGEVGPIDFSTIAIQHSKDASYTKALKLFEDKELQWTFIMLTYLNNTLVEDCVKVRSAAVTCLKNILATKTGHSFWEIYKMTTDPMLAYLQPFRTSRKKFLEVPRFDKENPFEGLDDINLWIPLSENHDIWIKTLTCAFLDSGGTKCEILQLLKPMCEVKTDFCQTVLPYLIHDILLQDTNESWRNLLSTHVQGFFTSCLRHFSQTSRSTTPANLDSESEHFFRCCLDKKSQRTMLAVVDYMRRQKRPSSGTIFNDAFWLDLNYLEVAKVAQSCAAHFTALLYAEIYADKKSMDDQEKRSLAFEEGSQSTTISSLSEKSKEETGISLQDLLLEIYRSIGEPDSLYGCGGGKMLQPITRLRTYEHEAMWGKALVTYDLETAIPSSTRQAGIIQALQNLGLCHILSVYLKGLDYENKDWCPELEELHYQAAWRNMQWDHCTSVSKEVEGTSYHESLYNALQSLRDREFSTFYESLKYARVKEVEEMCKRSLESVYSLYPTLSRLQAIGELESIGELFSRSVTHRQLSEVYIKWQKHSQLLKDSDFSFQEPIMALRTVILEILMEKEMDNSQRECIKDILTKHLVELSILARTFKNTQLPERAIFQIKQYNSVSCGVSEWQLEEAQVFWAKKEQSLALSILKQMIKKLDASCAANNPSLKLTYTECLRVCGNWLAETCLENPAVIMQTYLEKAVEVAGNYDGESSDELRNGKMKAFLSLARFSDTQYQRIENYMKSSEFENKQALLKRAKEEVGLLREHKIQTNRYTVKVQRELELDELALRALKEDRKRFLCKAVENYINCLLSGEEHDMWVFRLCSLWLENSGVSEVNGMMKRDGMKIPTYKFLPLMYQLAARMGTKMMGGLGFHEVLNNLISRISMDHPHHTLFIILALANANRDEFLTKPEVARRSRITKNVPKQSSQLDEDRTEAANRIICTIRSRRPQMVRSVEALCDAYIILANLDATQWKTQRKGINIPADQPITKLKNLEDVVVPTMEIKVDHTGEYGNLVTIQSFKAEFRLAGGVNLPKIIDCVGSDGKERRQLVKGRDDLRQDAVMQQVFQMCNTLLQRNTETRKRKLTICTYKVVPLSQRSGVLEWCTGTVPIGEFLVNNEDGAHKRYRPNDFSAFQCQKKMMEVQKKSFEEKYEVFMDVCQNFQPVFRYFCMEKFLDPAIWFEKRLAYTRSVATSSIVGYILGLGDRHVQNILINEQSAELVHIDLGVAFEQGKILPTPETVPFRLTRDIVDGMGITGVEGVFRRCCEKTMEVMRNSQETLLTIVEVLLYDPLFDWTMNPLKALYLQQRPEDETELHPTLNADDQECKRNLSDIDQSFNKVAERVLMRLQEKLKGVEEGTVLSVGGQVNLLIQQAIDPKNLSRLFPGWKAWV

As for `C[C@@H]1CN(c2ccc(-c3ccc4ncc5nnc(C6CCOCC6)n5c4c3)cc2)C[C@H](C)N1C` [Example 14, 1-(tetrahydro-2H-pyran-4-yl)-8-(4-((3S,5R)-3,4,5-trimethylpiperazin-1-yl)phenyl)-[1,2,4]triazolo[4,3-a]quinoxaline], the inhibition at 0.01 µM in assay [1] (setting [4]) is 20%. In assay [1] (setting [5]), the inhibition at 0.1 µM came out at 52%. In addition, the inhibition at 1 µM in assay [1] (setting [6]) worked out at 96%. For the same molecule, in assay [2] (Homo sapiens, SW-620, 120 h), the IC50 (in general, the concentration needed to halve the response being measured) is greater than 100000 nM.
On the same counts, the results for `CN(C)C1CCN(c2ccc(-c3ccc4ncc5nnc(C6CCOCC6)n5c4c3)cn2)CC1` [Example 15, N,N-dimethyl-1-(5-(1-(tetrahydro-2H-pyran-4-yl)-[1,2,4]triazolo[4,3-a]quinoxalin-8-yl)pyridin-2-yl)piperidin-4-amine] are 33%, 80%, 98% and 485 nM.
Take `c1ccc(-c2ccc3ncc4nnc(C5CCOCC5)n4c3c2)cc1` [Example 39, 8-phenyl-1-(tetrahydro-2H-pyran-4-yl)-[1,2,4]triazolo[4,3-a]quinoxaline]: in assay [1] (setting [6]), the inhibition at 1 µM stood at 62%. Moreover, in assay [2] (Homo sapiens, SW-620, 120 h), the 50% inhibitory concentration (IC50) is greater than 100000 nM.
In the case of `C[N+](C)(C)CCCNc1ccc(-c2ccc3ncc4nnc(C5CCOCC5)n4c3c2)cc1` [Example 40, N,N,N-trimethyl-3-((4-(1-(tetrahydro-2H-pyran-4-yl)-[1,2,4]triazolo[4,3-a]quinoxalin-8-yl)phenyl)amino)propan-1-aminium], the entries for the “Inh (%) of ATM kinase” value in assay [1] (setting [4]), in assay [1] (setting [5]) and in assay [1] (setting [6]) were 33%, 81% and 99%, respectively. In addition, in assay [2], the IC50 was greater than 100000 nM.
Consider `NC1CCN(c2ccc(-c3ccc4ncc5nnc(C6CCOCC6)n5c4c3)cc2)CC1` [Example 41, 1-(4-(1-(tetrahydro-2H-pyran-4-yl)-[1,2,4]triazolo[4,3-a]quinoxalin-8-yl)phenyl)piperidin-4-amine], for which the inhibition at 0.01 µM in assay [1] (setting [4]) is 33%. For the same molecule, the inhibition at 0.1 µM in assay [1] (setting [5]) came out at 81%. In assay [1] (setting [6]), the inhibition at 1 µM turned out to be 99%. Besides, the IC50 in assay [2] (Homo sapiens, SW-620, 120 h) worked out at 456 nM.
For `CNC1CCN(c2ccc(-c3ccc4ncc5nnc(C6CCOCC6)n5c4c3)cc2)CC1` [Example 42, N-methyl-1-(4-(1-(tetrahydro-2H-pyran-4-yl)-[1,2,4]triazolo[4,3-a]quinoxalin-8-yl)phenyl)piperidin-4-amine] the same measures were 68%, 90%, 99% and 211 nM.
On to `CCNC1CCN(c2ccc(-c3ccc4ncc5nnc(C6CCOCC6)n5c4c3)cc2)CC1` [Example 43, N-ethyl-1-(4-(1-(tetrahydro-2H-pyran-4-yl)-[1,2,4]triazolo[4,3-a]quinoxalin-8-yl)phenyl)piperidin-4-amine], for which the inhibition at 0.01 µM in assay [1] (setting [4]) worked out at 47%. Also, the inhibition at 0.1 µM in assay [1] (setting [5]) worked out at 89%. Moreover, in assay [1] (setting [6]), the inhibition at 1 µM is 100%. Besides, in assay [2] (Homo sapiens, SW-620, 120 h), the IC50 is 357 nM.
On to `C[C@@H]1CN(c2nnc3cnc4ccc(-c5ccc(N6CCC(N(C)C)CC6)c(F)c5)cc4n23)C[C@H](C)N1C` [Example 59, 1-(2-fluoro-4-(1-((3S,5R)-3,4,5-trimethylpiperazin-1-yl)-[1,2,4]triazolo[4,3-a]quinoxalin-8-yl)phenyl)-N,N-dimethylpiperidin-4-amine], for which the IC50 in assay [2] (Homo sapiens, SW-620, 120 h) stood at 14.4 nM; in assay [3] (setting [7]) it was 6.61 nM.
For the molecule `CN(C)C1CCN(c2ccc(-c3ccc4ncc5nnc(CN6CCOCC6)n5c4c3)cc2)CC1` [Example 65, N,N-dimethyl-1-(4-(1-(morpholinomethyl)-[1,2,4]triazolo[4,3-a]quinoxalin-8-yl)phenyl)piperidin-4-amine], the inhibition at 0.01 µM in assay [1] (setting [4]) amounted to 37%. Also, in assay [1] (setting [5]), the inhibition at 0.1 µM was 80%. Also, the inhibition at 1 µM in assay [1] (setting [6]) came out at 100%. Moreover, the concentration for half-maximal inhibition (IC50) in assay [2] (Homo sapiens, SW-620, 120 h) worked out at 402 nM.
As to `CN(C)CCCOc1ccc(-c2cc3c(cn2)ncc2nnc(C4CCOCC4)n23)cc1` [Example 69, N,N-dimethyl-3-(4-(1-(tetrahydro-2H-pyran-4-yl)pyrido[3,4-e][1,2,4]triazolo[4,3-a]pyrazin-8-yl)phenoxy)propan-1-amine], the IC50 in assay [3] is greater than 10000 nM.
As to `CN(C)C1CCN(c2ccc(-c3ccc4ncc5nnc(CN6CCOCC6)n5c4n3)cc2)CC1` [Example 78, N,N-dimethyl-1-(4-(9-(morpholinomethyl)pyrido[3,2-e][1,2,4]triazolo[4,3-a]pyrazin-2-yl)phenyl)piperidin-4-amine], the inhibition at 0.01 µM in assay [1] (setting [4]) was found to be 67%. For the same molecule, the inhibition at 0.1 µM in assay [1] (setting [5]) was 94%. Moreover, the inhibition at 1 µM in assay [1] (setting [6]) came to 98%. In assay [2] (Homo sapiens, SW-620, 120 h), the IC50 was determined as 664 nM.
As to `CN(C)CCCOc1ccc(-c2ccc3ncc4nnc(CN5CCOCC5)n4c3n2)cc1` [Example 79, N,N-dimethyl-3-(4-(9-(morpholinomethyl)pyrido[3,2-e][1,2,4]triazolo[4,3-a]pyrazin-2-yl)phenoxy)propan-1-amine], in assay [1] (setting [4]), the inhibition at 0.01 µM was 21%. For the same molecule, in assay [1] (setting [5]), the inhibition at 0.1 µM was 62%. The inhibition at 1 µM in assay [1] (setting [6]) was found to be 94%. For the same molecule, the IC50 in assay [2] (Homo sapiens, SW-620, 120 h) amounted to 1980 nM.
For `C[C@@H]1CN(c2nnc3cnc4ccc(-c5ccc(OCCCN(C)C)cc5)nc4n23)C[C@H](C)N1C` [Example 80, N,N-dimethyl-3-(4-(9-((3S,5R)-3,4,5-trimethylpiperazin-1-yl)pyrido[3,2-e][1,2,4]triazolo[4,3-a]pyrazin-2-yl)phenoxy)propan-1-amine], the IC50 worked out at 164 nM in assay [2] (Homo sapiens, SW-620, 120 h) and 271 nM in assay [3] (setting [7]).
For `C[C@@H]1CN(c2nnc3cnc4ccc(-c5ccc(OCCCN(C)C)c(F)c5)nc4n23)C[C@H](C)N1C` [Example 81, 3-(2-fluoro-4-(9-((3S,5R)-3,4,5-trimethylpiperazin-1-yl)pyrido[3,2-e][1,2,4]triazolo[4,3-a]pyrazin-2-yl)phenoxy)-N,N-dimethylpropan-1-amine] the same measures were 138 nM and 201 nM.
